From patent publication US9023853B2, “Janus kinase 2 (JAK2) inhibitor for the treatment of lupus” (Cephalon, Inc., priority 2010, dated 2015)
“And” between values parts separate entries of the source, which are not always exact repeats. Identical values can stand only once. “Also recorded” adds a separate entry of the source.

Tests used:
Format in all cases: in vivo, mouse
anti-dsDNA antibodies = experiment: Serum anti-dsDNA ANA ELISA in NZM mice
Excerpt: The measurement of anti-dsDNA and anti-Smith antigen antibodies was done by an in-house generated custom ELISA assay. Chromatin coated plates were purchased from Inova Diagnostics, Inc. Purified bovine thymus dsDNA (Sigma, St. Louis, […].) or purified bovine Smith antigen (GenWay, San Diego, Calif.) were used as coating antigen for the detection of anti-dsDNA and anti-Smith Ag antibodies respectively. Coated plates were washed with Borate Sulfate Saline (BSS) and blocked with BSS containing 1% Bovine Serum Albumin (BSA) and 0.1% Tween-20 detergent. Standard curves were generated using mouse anti-chromatin antibody (Sigma, 2B1) or 25 week old MRL/lpr serum. Mouse anti-dsDNA antibody (Abcam, Cambridge, Mass.), or mouse anti-Smith antigen antibody (Abcam) were used as standards for each assay. Secondary antibody was purchased from Abcam (goat anti-mouse pAb-HRP), the substrate was purchased from Rockland (Gilbertsville, Pa.) (TMB), and stop reaction buffer was generated using 1 mL of concentrated sulfuric acid into 20 mL of dH2O. Developed plates were read using a Victor-X4 spectrophotometer reading at […] with a reference wavelength of 570 nm. For all ANA ELISA assays, values below the limit of detection set by the lowest point along the standard or set by the manufacturer were considered out of range and were not estimated, but assumed the lowest point along the standard curve for that particular assay.
(§1) Age mated, female, NZM or NZW/LacJ, mice were matured for the study of lupus nephritis for a total of 7 months or 210 days at which time urine was collected for proteinuria detection. Mice with 0.5-1.0 mg/ml of urine protein as determined by an optical density-based total protein precipitation assay and cross-checked for 30-300 mg/dl of protein as determined by a stick assay were considered proteinuria positive and selected for study entry. Groups were normalized to contain a Gaussian distribution of proteinuria positive animals (i.e., ⅓ low proteinuria, ⅓ medium, ⅓ high) then randomized between groups before ear marking and taking baseline measures including urine and serum collections. A total of five mice from the total population were randomly selected for baseline kidney histology evaluation. Treatments and tests for each group are as described in FIG. 12. Briefly, with a minimum of 10 mice per group, COMPOUND A was administered at 100 mg/kg or 55 mg/kg, both twice a day and orally. […] Vehicle included 3% DMSO, 10% Solutol and 87% PBS. […] End-stage lupus nephritis was evaluated by histopathology and scored by a board certified pathologist for the assessment of total renal damage in diseased animals using the scoring method described by Smith et al (Smith, Dong et al. 2007). […] Day-98 or “end of treatment/study” represents 310 days of age for the NZM animals.

NZM mice [1] = experiment: Renal histopathology kidney IC-GN scoring in NZM mice
Experimental: For histological analyses, the left kidney and lung (NZM model only) from each animal was removed and fixed in 10% buffered neutral 10% formalin (EMD) for 48 hours on an orbital rocker at 25° C., then washed overnight with running dH2O and stored in 70% ethanol at 4° C. until ready to be processed. Kidney stains used for histological analyses included hematoxylin and eosin (H&E), Periodic Acid Schiff (PAS) and Trichrome stains (Wistar Institute, Philadelphia, Pa.). All 3 stained sections were used by the pathologist for scoring purposes. All histological scoring was performed blinded and by an independent board certified veterinary medical pathologist (Julie Engiles, VMD, DACVP; University of Pennsylvania). Multiple stains were used to determine score values. Images in FIGS. 8, 19 and 20 show worst affected area of section selected blindly by the pathologist.
Kidney IC-GN Scoring Method (Smith, Dong et al. 2007):
1. […]
2. […]
3. […]
4. […]
5. […]
6. […]
7. […]
Also considered effacement of the glomerular tuft by PAS positive, Trichrome negative material necrosis. • Glomerular sclerosis was defined by increased fibroplasia or fibrosis within the glomerular tuft or capsule. […] Pharmacodynamic (PD) Analysis
as §1

NZM mice [2] = experiment: Urinalysis total urine protein (proteinuria) in NZM mice
Experimental: Urine samples were acid precipitated for total protein recovery and analysis. Samples for which enough urine remained were used for Uristix® leukouria analysis (MRL/lpr study only). Briefly, a standard protein solution was prepared from normal mouse sera and was used as a standard for mouse urinary protein assay by turbidity. Standard preparation was as follows: 0, 5, 10, 15, 20, 30, 40, and 50 μL of a 4 mg/mL mouse sera standard protein solution as provided in the kit were added in duplicate into two columns. PBS was added to individual wells to adjust the final volume to 50 μL. For urine sample preparation, urine samples were centrifuged at 9880×g for 3 minutes using a tabletop micro-centrifuge. Urine supernatant (1-50 μL) was added in duplicate. PBS was added to adjust the volume to 50 μL total. For the turbidity assay: 25 μL of 0.1 N HCl was added into blank columns and 250 μL of 3% sulfosalicyclic acid into the test columns. The microplate was incubated for 10 minutes at RT and plates were read using an ELISA reader with single beam at 450 nm. For the Uristix® strip assay, strips were laid out and labeled. Twenty microliters of urine were placed onto each test strip square and incubated for at least 30 seconds before the result was recorded. For all total urine analysis plate-based assays, values below the limit of detection set by the lowest point along the standard or set by the manufacturer were considered out of range and were not estimated, but assumed the lowest point along the standard curve for that particular assay.
as §1

[3] = NZM group mean, CTX 50 mpk 1 × wk
[4] = NZM individual mouse, CTX 50 mpk 1 × wk
[5] = NZM mice, CTX 50 mg/kg once weekly ip
[6] = NZM kidney score (grade 0-5), mean, CTX 50 mg/kg

O=P1(N(CCCl)CCCl)NCCCO1 (centres unmarked) [CTX, cyclophosphamide, reference compound]
A: Anti-dsDNA IgG, MEAN (anti-dsDNA antibodies; [3]): 30.9
A: Anti-dsDNA IgG (anti-dsDNA antibodies; [4]): 13.4 and 6.9 and 22.2 and 13.2 and 40.3 and 9.6 and 65.1 and 52.4 and 24.3 and 61.9
serum anti-dsDNA ANAs decrease compared to vehicle (anti-dsDNA antibodies; [5]): 65.3%
B: Glomerular Cellularity (NZM mice [1]; [4]): ++ (‘++’ moderate (3)); also recorded: + (‘+’ mild (2)); also recorded: − (‘−’ no disease (1))
C: Glomerular Necrosis (NZM mice [1]; [4]): ++ (‘++’ moderate (3)) (2×) and − (‘−’ no disease (1)) (3×) and + (‘+’ mild (2)) (3×) and _
D: Glomerular Sclerosis (NZM mice [1]; [4]): +++ (‘+++’ high (4)); also recorded: − (‘−’ no disease (1)); also recorded: ++ (‘++’ moderate (3)); also recorded: + (‘+’ mild (2))
E: Interstitial Infiltration (NZM mice [1]; [4]): + (‘+’ mild (2)) (2×) and − (‘−’ no disease (1)) (5×) and +++ (‘+++’ high (4)) and _
F: Tubular Atrophy (NZM mice [1]; [4]): ++++ (‘++++’ severe disease (5)); also recorded: − (‘−’ no disease (1)); also recorded: + (‘+’ mild (2)); also recorded: ++ (‘++’ moderate (3))
G: Interstitial Fibrosis (NZM mice [1]; [4]): +++ (‘+++’ high (4)); also recorded: − (‘−’ no disease (1)); also recorded: + (‘+’ mild (2))
H: Vasculitis (NZM mice [1]; [4]): + (‘+’ mild (2)); also recorded: − (‘−’ no disease (1))
Glomerular Cellularity (NZM mice [1]; [6]): 2.0
Glomerular Necrosis (NZM mice [1]; [6]): 1.77
Glomerulosclerosis (NZM mice [1]; [6]): 2.11
Interstitial Fibrosis (NZM mice [1]; [6]): 1.55
Interstitial Infiltration (NZM mice [1]; [6]): 1.55
Tubular Atrophy (NZM mice [1]; [6]): 2.00
Vasculitis (NZM mice [1]; [6]): 1.33
I: Proteinuria, MEAN (NZM mice [2]; [3]): 2.8 mg/mL
I: Proteinuria (NZM mice [2]; [4]): 11.09 mg/mL and 0.86 mg/mL and 1.44 mg/mL and 0.76 mg/mL and 1.30 mg/mL and 0.71 mg/mL and 8.84 mg/mL and 0.96 mg/mL and 0.58 mg/mL and 1.50 mg/mL
total urine protein decrease compared to vehicle (NZM mice [2]; [5]): 67.1%
